We go through 95 compounds from the kinase profiling compilation of Christmann-Franck et al. (2016).

For orientation: Ki means the equilibrium dissociation constant of an inhibitor or competing ligand from its target. Low readings indicate a stronger hold on the target, high ones a looser hold on the target.

SGK1 (human), sequence (O00141 whole entry, looked up): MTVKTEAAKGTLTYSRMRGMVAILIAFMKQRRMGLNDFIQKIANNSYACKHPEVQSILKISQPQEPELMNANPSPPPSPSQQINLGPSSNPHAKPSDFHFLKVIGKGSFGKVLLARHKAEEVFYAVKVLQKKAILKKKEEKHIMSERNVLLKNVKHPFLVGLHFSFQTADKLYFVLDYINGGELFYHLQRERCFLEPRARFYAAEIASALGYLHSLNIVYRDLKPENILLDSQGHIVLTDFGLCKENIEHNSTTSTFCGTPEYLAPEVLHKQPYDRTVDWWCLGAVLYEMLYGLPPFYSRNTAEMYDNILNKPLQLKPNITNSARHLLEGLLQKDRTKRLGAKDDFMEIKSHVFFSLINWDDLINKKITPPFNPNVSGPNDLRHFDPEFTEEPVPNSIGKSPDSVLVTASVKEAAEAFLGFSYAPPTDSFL

The experiment has as its target SGK1 (human) (UniProt O00141). The experiment can be described thus: Flashplate.
Compound `Nc1ncnc2c1c(-c1cccc(OCc3ccccc3)c1)cn2[C@H]1CC[C@H](N2CCCC2)CC1` displayed a Ki of more than 10 µM. Under `O=C(NCc1ccccc1)c1ccc(-c2ccncc2)cc1` stands 3.16 µM. Then `O=C(NCC1CCCCC1)c1cc2c(-c3ccccc3)n[nH]c2s1`, with 3.16 µM; and `Cc1ccc(NC(=O)Nc2ccc(-c3cccc4c3CNC4=O)cc2)cc1C`, with more than 10 µM. Turning to `Cc1ccc(CNc2c(Nc3ccncc3)c(=O)c2=O)cc1`, the Ki came to 3.98 µM.

`CSc1nn(-c2ccccn2)c(N)c1C(N)=O` displayed a Ki of 6.31 µM.

The compound `CN1CCN(c2cccc(Nc3nccc(-c4c(C(N)=O)nc5ccccn45)n3)c2)CC1` registered a Ki of more than 10 µM.

`Nc1ncnc2c1c(I)nn2[C@H]1CC[C@@H](O)CC1` registered a Ki of 2 µM. Regarding `COc1cccc([C@@H](C)NC(=O)c2ccc(-c3ccncc3)cc2)c1`, the Ki worked out at 0.398 µM. Under `O=C(Nc1cnccn1)Nc1ccnc2c(F)cccc12` stands more than 10 µM; under `Cc1cccc(NC(=O)Nc2ccc(-c3cccc4c3CNC4=O)cc2C)c1`, more than 10 µM; under `COc1cc2c(cc1F)C(c1ccccc1Cl)=Nc1c(n[nH]c1C)N2`, 7.94 µM.

`COc1cc(Nc2ncc3c(n2)-c2ccc(Cl)cc2C(c2c(F)cccc2OC)=NC3)ccc1C(=O)O` returned a Ki of more than 10 µM.

With `Cc1cc(C)cc(NC(=O)Nc2ccc(NC(=O)c3csc4ncnc(N)c34)cc2)c1`, the Ki is more than 10 µM.

For the compound `Cc1n[nH]c2ccc(-c3cncc(OCCN)c3)cc12`, the Ki was found to be 2 µM. In the case of `Cn1cc(/C=C2\C(=O)Nc3cccnc32)c2ccccc21`, the Ki turned out to be 2.51 µM. The Ki values of the last two compounds are within 1.5-fold of each other. Under `O=C(Nc1cnc2[nH]cc(-c3ccccc3)c2c1)c1ccc(Cl)cc1` stands 5.01 µM; under `COc1nccn2c(-c3ccnc(NCC(C)(C)CO)n3)c(-c3ccc(F)cc3F)nc12`, more than 10 µM; under `CCOc1nc(C(=O)NCc2ccc(S(C)(=O)=O)cc2)cc(N)c1C#N`, more than 6.31 µM. Then `CC(C)S(=O)(=O)n1c(N)nc2ccc(-c3c(-c4ccc(F)cc4)nc4sccn34)cc21`, with more than 10 µM; and `Nc1ncnc2sc3c(c12)-c1ccc(NC(=O)Nc2ccccc2)cc1CC3`, with more than 10 µM.

Take `CCN1C(=O)N(C)c2cnc(Nc3ccc(C(=O)NC4CCN(C)CC4)cc3OC)nc2N1C1CCCC1`: the Ki is more than 10 µM. The compound `CNC(=O)c1cnc(N)c2c(-c3ccc(NC(=O)Nc4cccc(Cl)c4)cc3)csc12` registered a Ki of 3.16 µM. On to `NC(=O)c1cccc2c1Nc1nnc(Cl)cc1C(=O)N2`, for which the Ki came to 7.94 µM. Compound `O=C(Nc1n[nH]c2nc3ccccc3cc12)c1ccncc1` had a Ki of 1.58 µM. Then `O=C(O)c1cc2c(-c3cccc(F)c3)cncc2s1`, with more than 10 µM.

`CC(C)(C)c1ccc2nc(-c3n[nH]c4ccccc34)[nH]c2c1` yielded a Ki of 1.26 µM. That is a single-digit micromolar value. With `Cc1cccc(NC(=O)Nc2ccc(-c3csc4c(C#CC(C)(C)N)cnc(N)c34)cc2)c1`, the Ki is 3.16 µM. `O=c1[nH]c2ccc(Cl)cc2c(-c2ccccc2)c1C1=NNC(c2ccccc2)C1` (stereo not given) came in with a Ki of more than 10 µM. `O=C(c1cc(-c2ccc3[nH]ncc3c2)on1)N1CCC[C@@H](O)C1`: the Ki was more than 10 µM. Under `NC[C@@H](O)[C@@H](O)Cn1cc(I)c2c(N)ncnc21` stands 5.01 µM; under `Oc1cc(O)cc(/C=C/c2ccc(O)c(O)c2)c1`, 0.316 µM; under `CCOc1nc(NC(=O)Cc2cc(OC)c(S(C)(=O)=O)cc2OC)cc(N)c1Cl`, more than 10 µM.

In the case of `Oc1cccc(-c2nc(N3CCOCC3)c3oc4ncccc4c3n2)c1`, the Ki was more than 7.94 µM.

`CCCC(=O)Nc1n[nH]c2ccc(-c3cn(Cc4ccccc4)nn3)cc12` came in with an inhibition constant Ki of 1 µM. `CC(C)(C)n1nc(-c2ccc(Cl)cc2)c2c(N)ncnc21` came in with a Ki of more than 6.31 µM.

With `OC(COc1cncc(/C=C/c2ccncc2)c1)Cc1c[nH]c2ccccc12` (stereo not given), the Ki was more than 10 µM. Under `O=C(NCc1ccc(Cl)cc1)c1cc2c(-c3ccccc3)n[nH]c2s1` stands 1 µM. Under `C/C(=N/NC(=N)N)c1cc(NC(=O)NCCCCCCNC(=O)Nc2cc(/C(C)=N\NC(=N)N)cc(/C(C)=N/NC(=N)N)c2)cc(/C(C)=N/NC(=N)N)c1` stands 3.16 µM; under `NCCCOc1cc2c(c(-c3ccc(Nc4nc5ccccc5o4)cc3)c1)CNC2=O`, 7.94 µM. For the compound `Cn1nc(C(F)(F)F)c2c(=O)c3cc(Cl)ccc3n(O)c21`, the Ki was more than 10 µM. Under `NC(=O)c1c(OCc2c(F)cc(Br)cc2F)nsc1NC(=O)NCCCCN1CCCC1` stands more than 10 µM.

`Cc1cc(C)cc(NC(=O)Nc2ccc(-c3cccc4c3CNC4=O)c(C(F)(F)F)c2)c1` came in with a Ki of more than 10 µM. For `CC(C)Cn1c(N)nc2ccc(-c3c(-c4ccc(F)cc4)nc4sccn34)cc21`, the Ki is more than 10 µM. Under `CN(C)c1ccc(CNC(=O)c2cc3c(-c4ccccc4)n[nH]c3s2)cc1` stands 7.94 µM. Under `O=C1/C(=N\Nc2cccc3c(=O)[nH][nH]c(=O)c23)C(c2ccccc2)=NN1c1ccccc1` stands more than 10 µM. Under `CC1CSc2c(C(=O)O)c(=O)c3cc(F)c(N4CC[C@@H](N)C4)cc3n21` (stereo not given in full) stands more than 10 µM. On to `N#Cc1ncc2nc1OCCCCCOc1cc(OCCCO)c(Cl)cc1NC(=O)N2`, for which the Ki is more than 10 µM.

`CN(C(=O)C1CCCCC1)c1ccc2c(c1)nc(NC(=O)c1ccc(C#N)cc1)n2CCC(N)=O`: the Ki was more than 10 µM. Under `Cc1cccc(NC(=O)Nc2ccc(-c3csc4c(-c5cnn(C)c5)cnc(N)c34)cc2)c1` stands more than 10 µM. On to `O=C(Nc1cccc(C(F)(F)F)n1)Nc1ccnc2cc(C(F)(F)F)ccc12`, for which the inhibition constant Ki is more than 10 µM. For `C[C@@H](Nc1c(Nc2ccncc2)c(=O)c1=O)C(C)(C)C`, the Ki is more than 10 µM. Then `Cc1c(Cl)c(N2CCC(CN)C2)nc2[nH]cc(C(=O)O)c(=O)c12` (stereo not given), with more than 10 µM; and `CNC(=O)c1ccccc1Sc1ccc2c(/C=C/c3ccccn3)n[nH]c2c1`, with more than 10 µM. Then `COc1cc(-c2ccc3c(c2)Nc2ccc(C(=O)NCc4cccc(F)c4)cc2NC3=O)ccc1O`, with more than 10 µM; and `CCCS(=O)(=O)Nc1ccc(-c2ccc3[nH]nc(NC(C)=O)c3c2)cc1`, with more than 10 µM; and `CN(C)CC(=O)Nc1n[nH]c2ccc(-c3cn(Cc4ccccc4)nn3)cc12`, with 2 µM. Under `CCc1c(-c2ccc(C(C)(C)O)cc2)[nH]c2nccnc12` stands more than 10 µM; under `O=S(=O)(NCCNC/C=C/c1ccc(Br)cc1)c1cccc2cnccc12`, 1 µM; under `NC(=O)c1cc(-c2ccnc(N)n2)[nH]c1-c1ccc(Cl)cc1Cl`, 1.58 µM.

The compound `Nc1n[nH]c2cccc(-c3ccc(NC(=O)Nc4ccccc4)cc3)c12` displayed a Ki of 1 µM. Under `NC(=O)c1sc2c(Br)ccc(Cl)c2c1N` stands 3.16 µM; under `Cc1[nH]c(/C=C2\C(=O)Nc3ccccc32)c(C)c1CCC(=O)O`, 5.01 µM.

Consider `O=C(Nc1cccc(C(F)(F)F)n1)Nc1ccnc2c(Cl)c(Cl)ccc12`, for which the Ki is more than 10 µM. Then `CO[C@@H](C(=O)N1Cc2[nH]nc(NC(=O)c3ccc(N4CCN(C)CC4)cc3)c2C1)c1ccccc1`, with more than 10 µM. Then `CCOc1ccccc1/C=N/NC(=O)c1nnn(-c2nonc2N)c1N1CCCC1`, with more than 10 µM; and `O=c1nc(-c2ccc3[nH]ncc3c2)cc(-c2ccccc2)[nH]1`, with 2 µM. Under `Cc1c(-c2cccc(OCc3ccccc3)c2)c2c(N)ncnc2n1[C@H]1C[C@H](CN2CCCC2)C1` stands more than 10 µM. The compound `NNc1cc(N2CCOCC2)nc(OCCc2ccccn2)n1` showed a Ki of more than 10 µM.

For the compound `COc1cccc([C@@H](C)NC(=O)c2ccc(-c3ccncc3C)cc2)c1`, the Ki was 0.2 µM. Then `CS(=O)(=O)Nc1ccc(-c2ccc3[nH]nc(N)c3c2)cc1`, with 0.631 µM; and `CNC(=O)c1cnc(N)c2c(-c3ccc(NC(=O)Nc4cc(C)ccc4F)cc3)csc12`, with 5.01 µM. Then `OCC[C@@H](Nc1nc2ccc(-c3ccncc3)cc2s1)c1ccccc1`, with 1 µM; and `C[C@@H](Nc1nccc(-c2c(-c3ccc(F)cc3)nc3occn23)n1)c1ccccc1`, with more than 10 µM. Under `O=C1Cc2c([nH]c3ccc([N+](=O)[O-])cc23)-c2ccccc2N1` stands more than 10 µM; under `CNS(=O)(=O)c1ccccc1Nc1nc(Nc2cc(OC)c(OC)c(OC)c2)ncc1Cl`, more than 5.01 µM. Regarding `C[C@H](Nc1c(Nc2ccncc2)c(=O)c1=O)C1CCCCC1`, the Ki is more than 10 µM. Regarding `COc1ccc2c(NC(=O)Nc3cccc(Br)n3)ccnc2c1`, the Ki was more than 10 µM. Then `O=C1Nc2ccc3ncsc3c2/C1=C/Nc1ccc(S(=O)(=O)Nc2ccccn2)cc1`, with 0.0158 µM. Then `Oc1ccc(-c2nc(-c3ccc(F)cc3)c(-c3ccncc3)[nH]2)cc1`, with more than 6.31 µM; and `Nc1ncnc2sc(Br)c(-c3ccc(NC(=O)Cc4cccc(Cl)c4)cc3)c12`, with more than 10 µM. The compound `Cc1n[nH]c2c1C(c1ccccc1Cl)C(C#N)=C(N)O2` (stereo not given) showed a Ki of more than 10 µM.

In the case of `NC(=O)c1ccc(N[C@H]2CCCC[C@H]2N)nc1Nc1cccc(Cl)c1`, the Ki was more than 6.31 µM. Under `CC(C)(O)c1nnc2ccc(-c3c(-c4ccc(F)cc4F)nc4n3CCC4)nn12` stands more than 10 µM; under `NCCOc1cccc(Nc2ccnc(N)n2)c1`, more than 10 µM; under `FC(F)(F)c1ccc(Cn2cc(-c3ccc4[nH]ncc4c3)nn2)c(C(F)(F)F)c1`, more than 10 µM. Then `CC1=NN(c2ccc(C(=O)O)cc2)C(=O)/C1=C/c1c(C)c(C#N)c2nc3ccccc3n2c1O`, with more than 10 µM.

`O=C(Nc1cnccn1)Nc1ccnc2ccccc12` returned a Ki of 1.26 µM. Under `CC(C)OC1=NNC(=O)/C1=C/c1c[nH]c2ccccc12` stands more than 10 µM. Under `COc1ccc(-c2ccc(NC(=O)Nc3ccc(F)c(C)c3)cc2)c2c(N)noc12` stands more than 10 µM; under `COc1ccc(NC(=O)Nc2ccc(-c3csc4c(-c5cnn(CC(C)(C)O)c5)cnc(N)c34)cc2)cc1`, more than 10 µM.

Consider `O=C(Nc1cnc2[nH]cc(-c3ccccc3)c2c1)c1c(F)cccc1F`, for which the Ki amounted to 0.631 µM.

Compound `O=C(Nc1cccc(-c2nc3sccn3c2-c2ccnc(Nc3cccc(N4CCCC4=O)c3)n2)c1)c1c(F)cccc1F` came in with a Ki of more than 10 µM.

Consider `CCNc1nc2cc(Cl)c(OC)cc2nc1NCC`, for which the Ki is more than 10 µM. Under `O=c1[nH]cnc2c1sc1c(Cl)ccc(Cl)c12` stands more than 10 µM.
